From ChEMBL document CHEMBL3991601, “The target landscape of clinical kinase drugs” (Science, 2017) come the findings set out here.

The target in test [1] is Protein kinase C alpha type (Homo sapiens, UniProt P17252).
Test [2] deals with S-adenosylmethionine synthase isoform type-2 (Homo sapiens, UniProt P31153).
Another test concerns the target T1, Pyridoxal kinase (Homo sapiens, UniProt O00764).
T1 sequence (O00764 whole entry): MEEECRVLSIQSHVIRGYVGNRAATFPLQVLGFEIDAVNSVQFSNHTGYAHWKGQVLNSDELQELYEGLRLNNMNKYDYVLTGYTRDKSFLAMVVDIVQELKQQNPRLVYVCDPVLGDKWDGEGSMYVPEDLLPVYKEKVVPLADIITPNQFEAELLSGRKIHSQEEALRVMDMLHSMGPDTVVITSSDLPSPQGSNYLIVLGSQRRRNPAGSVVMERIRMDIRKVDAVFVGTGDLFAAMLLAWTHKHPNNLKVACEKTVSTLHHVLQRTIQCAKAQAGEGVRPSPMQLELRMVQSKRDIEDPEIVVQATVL

For test [3], the target named is Rho-associated protein kinase 2 (Homo sapiens, UniProt O75116).
Test [4] deals with Casein kinase I isoform epsilon (Homo sapiens, UniProt P49674).
The target of test [5] is T2, AarF domain-containing protein kinase 1 (Homo sapiens, UniProt Q86TW2).
T2 sequence (Q86TW2 whole entry): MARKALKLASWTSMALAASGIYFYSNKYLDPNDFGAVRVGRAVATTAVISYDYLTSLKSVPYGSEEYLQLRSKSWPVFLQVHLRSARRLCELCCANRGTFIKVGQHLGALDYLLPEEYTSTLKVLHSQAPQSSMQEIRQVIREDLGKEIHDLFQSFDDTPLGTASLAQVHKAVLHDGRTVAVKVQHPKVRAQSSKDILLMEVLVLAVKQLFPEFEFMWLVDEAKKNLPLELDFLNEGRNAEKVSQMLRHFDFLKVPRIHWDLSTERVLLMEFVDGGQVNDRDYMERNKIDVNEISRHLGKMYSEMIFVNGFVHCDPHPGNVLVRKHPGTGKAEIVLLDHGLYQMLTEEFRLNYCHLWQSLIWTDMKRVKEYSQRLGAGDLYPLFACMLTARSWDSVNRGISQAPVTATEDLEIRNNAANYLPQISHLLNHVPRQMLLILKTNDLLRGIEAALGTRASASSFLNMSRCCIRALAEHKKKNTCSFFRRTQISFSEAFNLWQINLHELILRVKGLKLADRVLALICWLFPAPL

Test [6] concerns the target ATP-dependent RNA helicase DDX3X (Homo sapiens, UniProt O00571).
The target of test [7] is T3, Ras-related protein Rab-27A (Homo sapiens, UniProt P51159).
T3 sequence (P51159 whole entry): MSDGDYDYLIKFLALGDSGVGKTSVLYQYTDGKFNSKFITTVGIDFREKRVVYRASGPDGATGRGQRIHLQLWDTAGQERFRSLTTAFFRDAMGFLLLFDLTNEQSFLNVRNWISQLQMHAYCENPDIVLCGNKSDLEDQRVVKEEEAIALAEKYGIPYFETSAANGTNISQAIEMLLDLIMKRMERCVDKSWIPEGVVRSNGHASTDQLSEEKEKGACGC

In test [8] the target is T4, Glycogen phosphorylase, liver form (Homo sapiens, UniProt P06737).
T4 sequence (P06737 whole entry): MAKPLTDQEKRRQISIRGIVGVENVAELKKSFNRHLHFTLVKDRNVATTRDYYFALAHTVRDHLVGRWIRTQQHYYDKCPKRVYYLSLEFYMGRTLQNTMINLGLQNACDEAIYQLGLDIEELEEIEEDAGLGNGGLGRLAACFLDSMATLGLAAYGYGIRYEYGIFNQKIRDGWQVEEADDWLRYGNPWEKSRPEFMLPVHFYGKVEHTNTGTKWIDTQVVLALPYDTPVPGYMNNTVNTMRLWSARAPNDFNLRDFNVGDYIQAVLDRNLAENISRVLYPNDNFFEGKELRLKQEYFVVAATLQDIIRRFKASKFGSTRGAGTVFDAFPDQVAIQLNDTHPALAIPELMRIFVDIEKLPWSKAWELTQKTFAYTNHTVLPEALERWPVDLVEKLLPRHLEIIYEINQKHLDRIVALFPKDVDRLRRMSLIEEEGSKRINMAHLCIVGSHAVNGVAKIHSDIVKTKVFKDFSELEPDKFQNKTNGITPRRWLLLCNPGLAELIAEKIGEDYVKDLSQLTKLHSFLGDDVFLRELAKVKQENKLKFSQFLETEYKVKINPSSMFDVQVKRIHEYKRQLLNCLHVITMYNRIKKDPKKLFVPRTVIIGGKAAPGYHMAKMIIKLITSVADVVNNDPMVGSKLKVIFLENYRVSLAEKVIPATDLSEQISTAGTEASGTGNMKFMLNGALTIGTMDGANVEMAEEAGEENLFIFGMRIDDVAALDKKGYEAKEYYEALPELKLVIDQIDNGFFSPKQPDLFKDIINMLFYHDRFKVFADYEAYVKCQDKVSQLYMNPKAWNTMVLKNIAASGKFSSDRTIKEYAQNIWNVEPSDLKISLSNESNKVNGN
The class given is subcellular, K-562, COLO 205, SK-N-BE(2) and MV-4-11, Cell lysate. To be noted: read-out: Kd apparent.

Test [9] deals with AP2-associated protein kinase 1 (Homo sapiens, UniProt Q2M2I8).
Test [10] has as its target Cyclin-dependent kinase 2 (Homo sapiens, UniProt P24941).
The target of test [11] is T5, Serine/threonine-protein kinase Nek2 (Homo sapiens, UniProt P51955).
T5 sequence (P51955 whole entry): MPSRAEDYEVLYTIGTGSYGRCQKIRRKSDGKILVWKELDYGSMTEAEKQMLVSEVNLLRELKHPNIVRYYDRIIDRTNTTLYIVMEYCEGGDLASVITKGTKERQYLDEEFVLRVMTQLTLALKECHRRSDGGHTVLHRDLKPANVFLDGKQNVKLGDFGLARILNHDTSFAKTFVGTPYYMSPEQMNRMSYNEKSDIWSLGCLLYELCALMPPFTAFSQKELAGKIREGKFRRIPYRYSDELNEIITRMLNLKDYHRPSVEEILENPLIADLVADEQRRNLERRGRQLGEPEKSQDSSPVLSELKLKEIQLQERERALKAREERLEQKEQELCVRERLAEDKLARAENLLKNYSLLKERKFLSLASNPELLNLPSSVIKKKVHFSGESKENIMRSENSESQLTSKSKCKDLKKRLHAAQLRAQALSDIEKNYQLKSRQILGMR

The target of another test is TGF-beta receptor type-2 (Homo sapiens, UniProt P37173).

Each structure is given as a SMILES string. Activity calls are given as the source filed them. Cut-off read from the data, not from the text of the source, for most assays here: actives have a measured Kd and inactives only a lower limit.
Note: in the data inactive means no Kd found up to 30 µM.

Chain of S-adenosylmethionine synthase isoform type-2 (P31153 whole entry, canonical isoform): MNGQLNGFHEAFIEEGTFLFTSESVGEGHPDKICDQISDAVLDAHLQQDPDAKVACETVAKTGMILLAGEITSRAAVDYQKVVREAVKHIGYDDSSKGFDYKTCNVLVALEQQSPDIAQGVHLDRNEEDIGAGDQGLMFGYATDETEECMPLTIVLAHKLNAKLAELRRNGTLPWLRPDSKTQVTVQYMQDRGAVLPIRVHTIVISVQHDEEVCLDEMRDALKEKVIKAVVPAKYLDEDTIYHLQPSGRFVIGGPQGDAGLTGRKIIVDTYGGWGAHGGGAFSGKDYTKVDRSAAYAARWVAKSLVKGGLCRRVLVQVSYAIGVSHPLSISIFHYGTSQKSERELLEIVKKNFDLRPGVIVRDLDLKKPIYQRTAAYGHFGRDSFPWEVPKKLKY
Chain of TGF-beta receptor type-2 (P37173 whole entry): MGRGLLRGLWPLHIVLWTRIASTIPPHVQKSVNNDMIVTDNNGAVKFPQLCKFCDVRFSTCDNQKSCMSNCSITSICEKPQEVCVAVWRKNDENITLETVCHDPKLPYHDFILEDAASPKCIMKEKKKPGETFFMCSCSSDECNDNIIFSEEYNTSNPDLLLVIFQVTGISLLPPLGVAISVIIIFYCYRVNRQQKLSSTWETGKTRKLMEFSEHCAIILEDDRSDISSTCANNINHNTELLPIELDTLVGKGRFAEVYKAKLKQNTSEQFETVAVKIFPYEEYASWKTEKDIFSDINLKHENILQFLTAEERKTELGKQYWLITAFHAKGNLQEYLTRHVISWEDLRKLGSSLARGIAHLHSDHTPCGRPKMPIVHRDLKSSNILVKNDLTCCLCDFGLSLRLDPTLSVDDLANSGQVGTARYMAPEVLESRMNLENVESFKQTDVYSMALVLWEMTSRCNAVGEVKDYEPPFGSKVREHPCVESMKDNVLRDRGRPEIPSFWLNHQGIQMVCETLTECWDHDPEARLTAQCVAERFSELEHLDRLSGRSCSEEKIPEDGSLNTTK
Chain of Casein kinase I isoform epsilon (P49674 whole entry, the tested form may be a part, canonical isoform): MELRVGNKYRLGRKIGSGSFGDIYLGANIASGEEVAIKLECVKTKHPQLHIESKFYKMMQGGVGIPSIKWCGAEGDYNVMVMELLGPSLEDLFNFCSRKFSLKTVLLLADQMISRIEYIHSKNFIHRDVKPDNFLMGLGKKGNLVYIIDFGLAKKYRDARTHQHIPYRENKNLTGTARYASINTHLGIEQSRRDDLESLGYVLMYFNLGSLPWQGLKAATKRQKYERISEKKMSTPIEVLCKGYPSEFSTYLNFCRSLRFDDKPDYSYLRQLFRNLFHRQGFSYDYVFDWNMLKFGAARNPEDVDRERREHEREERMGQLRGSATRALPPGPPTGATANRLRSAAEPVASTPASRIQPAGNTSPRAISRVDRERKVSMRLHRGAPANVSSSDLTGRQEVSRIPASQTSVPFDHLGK
Chain of Rho-associated protein kinase 2 (O75116 whole entry, canonical isoform): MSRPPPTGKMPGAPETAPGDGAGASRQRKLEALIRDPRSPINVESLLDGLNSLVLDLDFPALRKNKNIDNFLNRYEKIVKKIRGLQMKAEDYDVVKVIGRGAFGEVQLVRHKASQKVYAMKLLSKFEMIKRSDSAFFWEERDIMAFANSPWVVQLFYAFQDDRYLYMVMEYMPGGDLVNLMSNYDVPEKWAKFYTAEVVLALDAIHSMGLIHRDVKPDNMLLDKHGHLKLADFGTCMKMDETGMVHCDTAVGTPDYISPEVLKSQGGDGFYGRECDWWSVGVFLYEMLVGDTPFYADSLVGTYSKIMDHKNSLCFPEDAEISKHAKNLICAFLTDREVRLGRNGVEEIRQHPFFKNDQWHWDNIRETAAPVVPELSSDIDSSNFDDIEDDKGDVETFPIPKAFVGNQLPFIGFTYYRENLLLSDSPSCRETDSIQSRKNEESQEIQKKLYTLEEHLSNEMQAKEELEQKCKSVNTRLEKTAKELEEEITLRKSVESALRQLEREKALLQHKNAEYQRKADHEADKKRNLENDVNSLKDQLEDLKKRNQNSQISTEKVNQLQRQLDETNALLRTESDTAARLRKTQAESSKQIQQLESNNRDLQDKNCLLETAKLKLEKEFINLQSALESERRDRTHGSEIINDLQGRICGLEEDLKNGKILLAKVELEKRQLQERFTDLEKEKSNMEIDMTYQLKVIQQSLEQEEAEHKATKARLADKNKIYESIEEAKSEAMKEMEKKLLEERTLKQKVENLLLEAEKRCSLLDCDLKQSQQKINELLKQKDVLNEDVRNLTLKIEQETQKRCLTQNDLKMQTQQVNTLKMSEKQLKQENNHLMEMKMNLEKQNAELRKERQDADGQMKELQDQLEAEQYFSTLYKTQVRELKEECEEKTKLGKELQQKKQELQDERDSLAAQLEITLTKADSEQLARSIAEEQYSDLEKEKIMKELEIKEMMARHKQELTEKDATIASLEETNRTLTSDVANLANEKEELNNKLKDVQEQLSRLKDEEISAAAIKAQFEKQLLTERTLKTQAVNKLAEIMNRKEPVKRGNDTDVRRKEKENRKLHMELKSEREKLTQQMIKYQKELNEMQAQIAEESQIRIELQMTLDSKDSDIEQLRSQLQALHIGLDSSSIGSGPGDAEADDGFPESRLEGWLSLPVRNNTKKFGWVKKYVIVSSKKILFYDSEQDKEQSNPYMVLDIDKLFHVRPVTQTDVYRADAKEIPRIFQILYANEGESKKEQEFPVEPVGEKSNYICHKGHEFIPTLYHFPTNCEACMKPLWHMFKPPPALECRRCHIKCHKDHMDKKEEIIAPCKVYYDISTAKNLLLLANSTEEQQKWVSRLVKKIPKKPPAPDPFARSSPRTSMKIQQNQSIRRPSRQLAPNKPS
Chain of ATP-dependent RNA helicase DDX3X (O00571 whole entry): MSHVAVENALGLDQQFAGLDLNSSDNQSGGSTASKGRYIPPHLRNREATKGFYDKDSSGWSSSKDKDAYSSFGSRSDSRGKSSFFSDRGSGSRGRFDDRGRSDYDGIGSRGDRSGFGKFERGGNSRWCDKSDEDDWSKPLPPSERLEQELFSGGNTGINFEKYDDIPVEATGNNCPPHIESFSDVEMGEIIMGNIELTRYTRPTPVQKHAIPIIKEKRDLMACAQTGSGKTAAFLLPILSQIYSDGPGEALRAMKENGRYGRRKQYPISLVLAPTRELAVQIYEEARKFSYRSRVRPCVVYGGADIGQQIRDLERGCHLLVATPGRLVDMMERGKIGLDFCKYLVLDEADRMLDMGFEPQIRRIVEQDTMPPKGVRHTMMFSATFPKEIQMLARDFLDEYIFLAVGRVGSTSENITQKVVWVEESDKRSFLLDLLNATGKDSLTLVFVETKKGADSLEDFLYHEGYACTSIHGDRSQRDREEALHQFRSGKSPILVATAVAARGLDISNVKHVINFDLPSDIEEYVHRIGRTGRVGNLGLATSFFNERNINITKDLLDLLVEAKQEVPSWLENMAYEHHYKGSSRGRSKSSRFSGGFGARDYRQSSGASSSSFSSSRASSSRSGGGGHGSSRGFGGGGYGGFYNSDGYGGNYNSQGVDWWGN
Chain of AP2-associated protein kinase 1 (Q2M2I8 whole entry): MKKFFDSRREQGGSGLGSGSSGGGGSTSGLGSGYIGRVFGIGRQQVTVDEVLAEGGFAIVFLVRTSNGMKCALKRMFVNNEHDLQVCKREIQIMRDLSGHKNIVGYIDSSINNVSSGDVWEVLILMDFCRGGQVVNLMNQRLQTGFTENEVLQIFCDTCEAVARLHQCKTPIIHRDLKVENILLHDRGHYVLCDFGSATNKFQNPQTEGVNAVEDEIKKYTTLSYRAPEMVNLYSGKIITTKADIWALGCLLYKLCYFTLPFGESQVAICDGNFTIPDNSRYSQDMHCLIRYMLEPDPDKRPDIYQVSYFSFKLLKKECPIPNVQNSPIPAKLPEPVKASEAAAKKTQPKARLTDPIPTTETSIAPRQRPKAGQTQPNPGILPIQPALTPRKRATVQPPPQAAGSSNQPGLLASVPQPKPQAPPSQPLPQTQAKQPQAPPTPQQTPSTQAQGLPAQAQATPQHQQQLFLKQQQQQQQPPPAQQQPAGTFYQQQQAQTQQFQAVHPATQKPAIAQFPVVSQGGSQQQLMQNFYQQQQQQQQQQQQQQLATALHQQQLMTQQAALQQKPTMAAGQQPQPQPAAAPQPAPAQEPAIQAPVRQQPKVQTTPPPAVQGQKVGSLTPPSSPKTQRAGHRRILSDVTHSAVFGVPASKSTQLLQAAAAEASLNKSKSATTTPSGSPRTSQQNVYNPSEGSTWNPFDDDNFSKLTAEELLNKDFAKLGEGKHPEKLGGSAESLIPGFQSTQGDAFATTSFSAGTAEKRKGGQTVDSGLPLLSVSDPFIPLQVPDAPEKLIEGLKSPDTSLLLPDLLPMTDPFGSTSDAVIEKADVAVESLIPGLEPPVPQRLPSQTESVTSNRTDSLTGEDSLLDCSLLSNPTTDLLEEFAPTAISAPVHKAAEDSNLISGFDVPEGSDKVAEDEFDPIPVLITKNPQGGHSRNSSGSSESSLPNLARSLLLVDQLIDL

With `S=C(NCc1ccc2c(c1)OCO2)N1CCN(c2ncnc3c2oc2ccccc23)CC1` [AMUVATINIB], the Kd (in test [1]; in test [2]; at Pyridoxal kinase; in test [3]; in test [4]; in test [5]) was > 30 µM (inactive) in each case. Moreover, the Kd in test [6], in test [7], in [8], in test [9], in [10] and in test [11] was > 30 µM (inactive) each time.

Take `c1cc(OCCN2CCCCC2)cc(-c2n[nH]c3ccc(-c4nc[nH]n4)cc23)c1` [CC-401]: the Kd in test [1] was > 30 µM (inactive); in [2], > 30 µM (inactive); at TGF-beta receptor type-2, > 30 µM (inactive); at Pyridoxal kinase, > 30 µM (inactive); in test [3], > 30 µM (inactive); in [4], 0.285 µM (active). Moreover, the Kd in [5] is > 30 µM (inactive); in test [6], > 30 µM (inactive); in test [7] it was > 30 µM (inactive); in test [8] it was > 30 µM (inactive); in test [9], 2.61 µM (active); in [11] it was > 30 µM (inactive).

Take `COc1cc2ncnc(Nc3ccc(O)cc3)c2cc1OC` [WHI-P131]: the Kd (in test [1]; in test [2]; on TGF-beta receptor type-2; on Pyridoxal kinase; in test [3]; in test [4]) was > 30 µM (inactive) throughout. Also, the Kd was > 30 µM (inactive) in [5]; > 30 µM (inactive) in test [6]; > 30 µM (inactive) in test [8]; 1.07 µM (active) in test [9]; > 30 µM (inactive) in test [11].

In the case of `O=S(=O)(c1cccc2c(O)nccc12)N1CCCNCC1` [HYDROXYFASUDIL], the Kd (in [2]; on TGF-beta receptor type-2; at Pyridoxal kinase; in test [4]; in [5]; in test [6]) was > 30 µM (inactive) throughout. Moreover, the Kd in test [7], in test [8], in [9], in test [10] and in test [11] was > 30 µM (inactive) in each case.

With `N#CCNC(=O)c1ccc(-c2ccnc(Nc3ccc(N4CCOCC4)cc3)n2)cc1` [MOMELOTINIB], the Kd is > 30 µM (inactive) in [1]; > 30 µM (inactive) in test [2]; > 30 µM (inactive) on TGF-beta receptor type-2; > 30 µM (inactive) at Pyridoxal kinase; 0.219 µM (active) in test [3]; > 30 µM (inactive) in test [4]. Besides, the Kd in test [5] is 0.217 µM; in test [6], > 30 µM (inactive); in test [7] it was > 30 µM (inactive); in [8], > 30 µM (inactive); in test [9], 0.004 µM (active); in test [11] it was > 30 µM (inactive).

Regarding `CCN1CCN(Cc2ccc(Nc3ncc(F)c(-c4cc(F)c5nc(C)n(C(C)C)c5c4)n3)nc2)CC1` [ABEMACICLIB], the Kd in [1] is 0.53 µM (active); in test [2], > 30 µM (inactive); on TGF-beta receptor type-2 it was > 30 µM (inactive); at Pyridoxal kinase it was > 30 µM (inactive); in test [3], > 30 µM (inactive); in test [4] it was > 30 µM (inactive). Also, the Kd in [5] was 0.04 µM (active); in [6], > 30 µM (inactive); in test [7], > 30 µM (inactive); in test [8], > 30 µM (inactive); in test [11] it was > 30 µM (inactive).

Take `C=CC(=O)Nc1cc(Nc2nccc(-c3cn(C)c4ccccc34)n2)c(OC)cc1N(C)CCN(C)C` [OSIMERTINIB]: the Kd (in [1]; in test [2]; at Pyridoxal kinase; in test [3]; in [4]; in test [5]) was > 30 µM (inactive) each time. Also, the Kd in [6], in [7], in test [8], in test [9], in test [10] and in [11] was > 30 µM (inactive) in each case.

`Cc1cc(C(=O)Nc2cc(Oc3ccc4nc(NC(=O)C5CC5)cn4n3)ccc2C)n(C)n1` [TAK-593]: the Kd (in test [1]; at TGF-beta receptor type-2; on Pyridoxal kinase; in test [3]; in test [4]; in [5]) was > 30 µM (inactive) in each case. For the same compound, the Kd is > 30 µM (inactive) in test [6]; > 30 µM (inactive) in test [8]; 2.44 µM (active) in test [9]; > 30 µM (inactive) in [10]; > 30 µM (inactive) in test [11].

In the case of `NC[C@@](O)(c1ccc(Cl)cc1)c1ccc(-c2cn[nH]c2)cc1` [AT-13148], the Kd in test [1] is > 30 µM (inactive); in [2], > 30 µM (inactive); on Pyridoxal kinase, > 30 µM (inactive); in test [3], 0.026 µM (active); in test [4], > 30 µM (inactive); in test [5] it was > 30 µM (inactive). Moreover, the Kd in test [6], in test [7], in test [8], in test [9], in test [10] and in test [11] was > 30 µM (inactive) in each case.
